Eleven compounds from US8710184B2, “Motilin-like peptide compound having transmucosal absorbability imparted thereto” (Daiichi Sankyo Company, Limited, priority 2009, dated 2014) can be followed below.

The nature of this data set: Pharmacokinetic experiment on pulmonarily administered native motilin and motilin derivative compounds in rats (RIA). The conditions noted are these: pulmonary administration; for Cmax / AUC: male, SD, plasma, inhaled or intranasal, 25 ug/animal; for Cmax / AUC / BA: 25 μg/rat; for AUC: trapezoidal method; for BA: relative to AUC of intravenous native motilin. The data set is classed as in vivo, rat. How it is done:
As test animals, 7- to 10-wk old male SD rats (purchased from CHARLES RIVER LABORATORIES JAPAN, INC.) that consisted of 3 rats per a group were subjected to the following experiment. Native motilin or motilin derivative compounds were dissolved in an aqueous solution of 0.1 N acetic acid to prepare a solution at a concentration of 1 mg/mL and 25 μL of the solution was administered into the polyethylene tube through the trachea by means of an intratracheal liquid spraying device (MicroSprayer; product of Penn Century). […] In the measurement, the respective derivatives were used as standard substances to construct calibration curves for determining the plasma levels.
Using these values, bioavailability (BA (%)) was calculated by the following equation: BA(%)=[(AUC/Dose)/(AUC(motilin—iv)/Dose(motilin—iv))]×100 • AUC: AUC (ng·min/mL) after pulmonary administration • Dose: dose (μg/kg) in pulmonary administration • AUC (motilin_iv): AUC (ng·min/mL) after intravenous administration of native motilin • Dose (motilin_iv): dose (μg/kg) in intravenous administration of native motilin.

Starred links: 1 amine or outer side, 2 acyl side, 3 side chain; linkers in the order of their positions; H or OH if unused. Non-standard residues stand in square brackets, D forms with d. Residues, ends and D or L forms follow the SMILES beside them. No end group written: not given here. X1 = CC(C)[C@@H](C(=O)[*:2])N(C[C@@H](N)Cc1ccccc1)[*:1]; β3hPhg = O=C(C[C@@H](N[*:1])c1ccccc1)[*:2]; Sar = CNCC(=O)O

With `CC[C@H](C)[C@H](NC(=O)[C@@H]1CCCN1C(=O)[C@@H](NC[C@@H](N)Cc1ccccc1)C(C)C)C(=O)N[C@@H](Cc1ccccc1)C(=O)N[C@H](C(=O)N[C@@H](Cc1ccc(O)cc1)C(=O)NCC(=O)N[C@@H](CCC(=O)O)C(=O)N[C@@H](CC(C)C)C(=O)N[C@@H](CCC(N)=O)C(=O)N[C@@H](CCCNC(=N)N)C(=O)N[C@@H](CCSC)C(=O)N[C@@H](CCC(N)=O)C(=O)N[C@@H](CCC(=O)O)C(=O)N[C@@H](CCCCN)C(=O)N[C@@H](CCC(=O)O)C(=O)N[C@@H](CCCNC(=N)N)C(=O)N[C@@H](CC(N)=O)C(=O)N[C@@H](CCCCN)C(=O)NCC(=O)N[C@@H](CCC(N)=O)C(=O)O)[C@@H](C)O` [Comparative compound 2, reference compound] (H-[X1]PIFTYGELQRMQEKERNKGQ-OH; N-terminus and C-terminus assumed), the Cmax – broadly, the maximum level reached in the sampled fluid or tissue – was 9.3 ± 3.09 ng/mL; the AUC (in general, concentration integrated over time) was 1.98 ng·h/mL; the BA was found to be 4.1 ± 1.6%. The compound further registered a BA (listed as comparative compound 2) of 4.1%.
Regarding `CC[C@H](C)[C@H](NC(=O)[C@@H]1CCCN1C(=O)[C@@H](NC(=O)[C@@H](N)Cc1ccccc1)C(C)C)C(=O)N[C@@H](Cc1ccccc1)C(=O)N[C@H](C(=O)N[C@@H](Cc1ccc(O)cc1)C(=O)NCC(=O)N[C@@H](CCC(=O)O)C(=O)N[C@@H](CC(C)C)C(=O)N[C@@H](CCC(N)=O)C(=O)N[C@@H](CCCNC(=N)N)C(=O)N[C@@H](CCSC)C(=O)N[C@@H](CCC(N)=O)C(=O)N[C@@H](CCC(=O)O)C(=O)N[C@@H](CCCCN)C(=O)N[C@@H](CCC(=O)O)C(=O)N[C@@H](CCCNC(=N)N)C(=O)N[C@@H](CC(N)=O)C(=O)N[C@@H](CCCCN)C(=O)N1CCC[C@H]1C(=O)N[C@@H](CCC(N)=O)C(=O)O)[C@@H](C)O` [Compound 1], the Cmax is 9.09 ± 0.53 ng/mL, the AUC is 1.99 ng·h/mL and the BA was 5.3 ± 0.6%. For the same compound, the BA (listed as compound 1) is 5.3%.
In turn, `CC[C@H](C)[C@H](NC(=O)[C@@H]1CCCN1C(=O)[C@@H](NC(=O)C[C@@H](N)c1ccccc1)C(C)C)C(=O)N[C@@H](Cc1ccccc1)C(=O)N[C@H](C(=O)N[C@@H](Cc1ccc(O)cc1)C(=O)NCC(=O)N[C@@H](CCC(=O)O)C(=O)N[C@@H](CC(C)C)C(=O)N[C@@H](CCC(N)=O)C(=O)N[C@@H](CCCNC(=N)N)C(=O)N[C@@H](CC(C)C)C(=O)N[C@@H](CCC(N)=O)C(=O)N[C@@H](CCC(=O)O)C(=O)N[C@@H](CCCCN)C(=O)N[C@@H](CCC(=O)O)C(=O)N[C@@H](CCCNC(=N)N)C(=O)N1CCC[C@H]1C(=O)N[C@@H](CCCCN)C(=O)N1CCC[C@H]1C(=O)N[C@@H](CCC(N)=O)C(=O)O)[C@@H](C)O` [Compound 4] (β3hPhg-VPIFTYGELQRLQEKERPKPQ-OH; N-terminus and C-terminus assumed) showed a Cmax of 14.6 ± 8.23 ng/mL, an AUC of 4.69 ng·h/mL and a BA of 11.0 ± 7.2%.
`CC[C@H](C)[C@H](NC(=O)CN(C)C(=O)[C@@H](NC(=O)C[C@@H](N)c1ccccc1)C(C)C)C(=O)N[C@@H](Cc1ccccc1)C(=O)N[C@H](C(=O)N[C@@H](Cc1ccc(O)cc1)C(=O)NCC(=O)N[C@@H](CCC(=O)O)C(=O)N[C@@H](CC(C)C)C(=O)N[C@@H](CCC(N)=O)C(=O)N[C@@H](CCCNC(=N)N)C(=O)N[C@@H](CC(C)C)C(=O)N[C@@H](CCC(N)=O)C(=O)N[C@@H](CCC(=O)O)C(=O)N[C@@H](CCCCN)C(=O)N[C@@H](CCC(=O)O)C(=O)N[C@@H](CCCNC(=N)N)C(=O)N1CCC[C@H]1C(=O)N[C@@H](CCCCN)C(=O)N1CCC[C@H]1C(=O)N[C@@H](CCC(N)=O)C(=O)O)[C@@H](C)O` [Compound 5, Phg(C#CH2) Val Sar Ile Phe Thr Tyr Gly Glu Leu Gln Arg Leu Gln Glu Lys Glu Arg Pro Lys Pro Gln] (β3hPhg-V[Sar]IFTYGELQRLQEKERPKPQ-OH; N-terminus and C-terminus assumed): the Cmax turned out to be 14.8 ± 7.78 ng/mL, the AUC was 2.92 ng·h/mL and the BA turned out to be 5.7 ± 2.9%.
As to `CC[C@H](C)[C@H](NC(=O)[C@@H]1CCCN1C(=O)[C@@H](NC[C@@H](N)Cc1ccccc1)C(C)C)C(=O)N[C@@H](Cc1ccccc1)C(=O)N[C@H](C(=O)N[C@@H](Cc1ccc(O)cc1)C(=O)NCC(=O)N[C@@H](CCC(=O)O)C(=O)N[C@@H](CC(C)C)C(=O)N[C@@H](CCC(N)=O)C(=O)N[C@@H](CCCNC(=N)N)C(=O)N[C@@H](CCSC)C(=O)N[C@@H](CCC(N)=O)C(=O)N[C@@H](CCC(=O)O)C(=O)N[C@@H](CCCCN)C(=O)N[C@@H](CCC(=O)O)C(=O)N[C@@H](CCCNC(=N)N)C(=O)N[C@@H](CC(N)=O)C(=O)N[C@@H](CCCCN)C(=O)N1CCC[C@H]1C(=O)N[C@@H](CCC(N)=O)C(=O)O)[C@@H](C)O` [Compound 6] (H-[X1]PIFTYGELQRMQEKERNKPQ-OH; N-terminus and C-terminus assumed), the Cmax was determined as 34.2 ± 20 ng/mL, the AUC is 6.34 ng·h/mL and the BA is reported as 11.5 ± 6.1%. This compound had a BA (listed as compound 6) of 11.5%. Also, the “profile of plasma concentration compared with native motilin” value (FIG. 3) was “high peak levels”.
`CC[C@H](C)[C@H](NC(=O)[C@@H]1CCCN1C(=O)[C@@H](NC[C@@H](N)Cc1ccccc1)C(C)C)C(=O)N[C@@H](Cc1ccccc1)C(=O)N[C@H](C(=O)N[C@@H](Cc1ccc(O)cc1)C(=O)NCC(=O)N[C@@H](CCC(=O)O)C(=O)N[C@@H](CC(C)C)C(=O)N[C@@H](CCC(N)=O)C(=O)N[C@@H](CCCNC(=N)N)C(=O)N[C@@H](CC(C)C)C(=O)N[C@@H](CCC(N)=O)C(=O)N[C@@H](CCC(=O)O)C(=O)N[C@@H](CCCCN)C(=O)N[C@@H](CCC(=O)O)C(=O)N[C@@H](CCCNC(=N)N)C(=O)N[C@@H](CC(N)=O)C(=O)N[C@@H](CCCCN)C(=O)N1CCC[C@H]1C(=O)N[C@@H](CCC(N)=O)C(=O)O)[C@@H](C)O` [Compound 7] (H-[X1]PIFTYGELQRLQEKERNKPQ-OH; N-terminus and C-terminus assumed): the peak level (Cmax) was 17.2 ± 7.18 ng/mL, the AUC is 3.24 ng·h/mL and the BA is on record as 6.4 ± 1.3%.
The like results for `CC[C@H](C)[C@H](NC(=O)[C@@H]1CCCN1C(=O)[C@@H](NC[C@@H](N)Cc1ccccc1)C(C)C)C(=O)N[C@@H](Cc1ccccc1)C(=O)N[C@H](C(=O)N[C@@H](Cc1ccc(O)cc1)C(=O)NCC(=O)N[C@@H](CC(=O)O)C(=O)N[C@@H](CC(C)C)C(=O)N[C@@H](CCC(N)=O)C(=O)N[C@@H](CCCNC(=N)N)C(=O)N[C@@H](CC(C)C)C(=O)N[C@@H](CCC(N)=O)C(=O)N[C@@H](CCC(=O)O)C(=O)N[C@@H](CCCCN)C(=O)N[C@@H](CCC(=O)O)C(=O)N[C@@H](CCCNC(=N)N)C(=O)N1CCC[C@H]1C(=O)N[C@@H](CCCCN)C(=O)N1CCC[C@H]1C(=O)N[C@@H](CCC(N)=O)C(=O)O)[C@@H](C)O` [Compound 12] (H-[X1]PIFTYGDLQRLQEKERPKPQ-OH; N-terminus and C-terminus assumed) were, in that order, 30.1 ± 15.8 ng/mL, 9.42 ng·h/mL and 18.7 ± 10.7%.
The like results for `CC[C@H](C)[C@H](NC(=O)[C@@H]1CCCN1C(=O)[C@@H](NC[C@@H](N)Cc1ccccc1)C(C)C)C(=O)N[C@@H](Cc1ccccc1)C(=O)N[C@H](C(=O)N[C@@H](Cc1ccc(O)cc1)C(=O)NCC(=O)N[C@@H](CC(=O)O)C(=O)N[C@@H](CC(C)C)C(=O)N[C@@H](CCC(N)=O)C(=O)N[C@@H](CCCNC(=N)N)C(=O)N[C@@H](CCSC)C(=O)N[C@@H](CCC(N)=O)C(=O)N[C@@H](CCC(=O)O)C(=O)N[C@@H](CCCCN)C(=O)N[C@@H](CCC(=O)O)C(=O)N[C@@H](CCCNC(=N)N)C(=O)N1CCC[C@H]1C(=O)N[C@@H](CCCCN)C(=O)N1CCC[C@H]1C(=O)N[C@@H](CCC(N)=O)C(=O)O)[C@@H](C)O` [Compound 13] (H-[X1]PIFTYGDLQRMQEKERPKPQ-OH; N-terminus and C-terminus assumed) were, in that order, 18.4 ± 10.4 ng/mL, 3.09 ng·h/mL and 5.6 ± 1.5%.
In the case of FVPIFTYGDLQRLQEKERPKPQ [Compound 3], the Cmax turned out to be 24.6 ± 5.8 ng/mL, the AUC was 4.7 ng·h/mL and the BA is listed as 9.5 ± 0.9%.
Compound “FVPIFTYGELQRLQEKERNKGQ [Comparative compound 1, reference compound]” had a Cmax of 4.53 ± 2.86 ng/mL, an AUC of 1.05 ng·h/mL and a BA of 2.8 ± 1.6%. In addition, under “listed as comparative compound 1”, the BA was determined as 2.8%.
Take FVPIFTYGELQRLQEKERPKPQ [Compound 9]: the concentration peaked (Cmax) at 8.99 ± 5.99 ng/mL, the AUC was 1.93 ng·h/mL and the BA was determined as 5.7 ± 3.1%.
